# Reference: patent publication US8772499B2, “TRPV3 modulators” (AbbVie Inc., priority 2011, dated 2014)
# Legend:
# [1] = In vitro human microsomal stability assay; assay type: in vitro ADME; conditions: human, microsomes, 0.5 h, 0.5 μM, pH 7.4
# In short: (§1)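 Compound incubated at 37 °C with NADPH-supplemented liver microsomes, either human or from Sprague-Dawley rat, to assess metabolic stability.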
# human TRPV3 = molecular target: T1, human TRPV3 (Homo sapiens, UniProt Q8NET8); experiment: In vitro antagonism of recombinant human TRPV3 activation (FLIPR Tetra calcium assay); assay type: cell-based; conditions: HEK293 cells stably expressing human TRPV3; agonist 2-APB at 80 μM; actual measured value shown parenthetically; in most cases average of at least two runs; read-out: IC50
# T1 construct: expressed in transfected cells
# T1 sequence (Q8NET8 1-790): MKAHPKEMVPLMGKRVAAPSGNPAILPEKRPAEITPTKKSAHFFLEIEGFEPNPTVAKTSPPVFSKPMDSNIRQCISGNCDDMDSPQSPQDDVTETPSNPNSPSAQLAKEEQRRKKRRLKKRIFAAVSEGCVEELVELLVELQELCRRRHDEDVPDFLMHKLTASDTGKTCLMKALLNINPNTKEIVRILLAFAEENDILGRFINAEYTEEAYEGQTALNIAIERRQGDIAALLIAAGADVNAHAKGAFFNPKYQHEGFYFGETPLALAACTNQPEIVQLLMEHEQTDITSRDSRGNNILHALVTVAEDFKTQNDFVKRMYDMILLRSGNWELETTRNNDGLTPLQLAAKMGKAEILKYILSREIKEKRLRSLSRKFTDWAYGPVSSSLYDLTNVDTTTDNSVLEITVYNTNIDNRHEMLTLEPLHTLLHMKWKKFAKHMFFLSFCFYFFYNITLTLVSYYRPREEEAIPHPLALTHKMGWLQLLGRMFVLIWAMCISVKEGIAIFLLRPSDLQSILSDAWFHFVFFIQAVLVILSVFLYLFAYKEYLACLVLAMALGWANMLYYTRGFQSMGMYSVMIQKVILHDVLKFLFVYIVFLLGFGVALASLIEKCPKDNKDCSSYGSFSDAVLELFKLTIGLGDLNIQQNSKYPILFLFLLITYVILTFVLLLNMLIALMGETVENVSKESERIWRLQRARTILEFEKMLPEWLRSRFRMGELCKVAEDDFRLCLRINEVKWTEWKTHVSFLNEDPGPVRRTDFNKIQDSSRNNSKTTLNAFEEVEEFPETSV
# In short: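 Calcium flux read over a 10 min run: compound added at 10 s to Calcium-4-loaded human TRPV3-HEK293 cells, agonist 2-APB (80 μM, its EC80) after 3 min. IC50 derived from peak-minus-baseline signal as percentage of uninhibited 2-APB response, typically averaged over at least two runs.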
# [2] = In vitro rat microsomal stability assay; assay type: in vitro ADME, rat (Sprague-Dawley); conditions: Sprague-Dawley, rat, microsomes, 0.5 h, 0.5 μM, pH 7.4
# In short: as §1
SMILES,HUMAN MICROSOMAL STABILITY (% REMAINING AFTER 30 MINUTES) [1] [%],IC50 (human TRPV3) [nM],RAT MICROSOMAL STABILITY (% REMAINING AFTER 30 MINUTES) [2] [%]
"O[C@H](c1ccccn1)[C@]1(c2cccc(C(F)(F)F)c2)C[C@H](O)C1 [Example 259, cis-3-[(S)-hydroxy(pyridin-2-yl)methyl]-3-[3-(trifluoromethyl)phenyl]-cyclobutanol]",76,470,73
"OC(c1ccccn1)C1(C2=CCC(F)(F)CC2)CCC1 (stereo not drawn) [Example 260, [1-(4,4-difluorocyclohex-1-en-1-yl)cyclobutyl](pyridin-2-yl)methanol]",12,5320,<0.01
"OC(c1ccccn1)C1(C2=CCCC(C(F)(F)F)C2)CCC1 (stereo not drawn) [Example 261, pyridin-2-yl{1-[5-(trifluoromethyl)cyclohex-1-en-1-yl]cyclobutyl}methanol]",0.01,1270,<0.01
"O[C@H](c1ccccn1)[C@]1(c2cccc(C(F)(F)F)c2)C[C@@H](O)C1 [Example 264, trans-3-[(S)-hydroxy(pyridin-2-yl)methyl]-3-[3-(trifluoromethyl)phenyl]-cyclobutanol]",56,230,59
"CC(C)(C)OC(=O)N1CCC(C2(C(O)c3ccccn3)CCC2)C1 (stereo not drawn) [Example 265, tert-butyl 3-{1-[hydroxy(pyridin-2-yl)methyl]cyclobutyl}pyrrolidine-1-carboxylate]",43,5640,0.059
"OC(c1ccccn1)C1(c2nc3ccccc3s2)CCC1 (stereo not drawn) [Example 266, [1-(1,3-benzothiazol-2-yl)cyclobutyl](pyridin-2-yl)methanol]",46,2310,0.14
"CN(C)N=C1CC(c2ccc(OC(F)(F)F)cc2)([C@H](O)c2ccccn2)C1 (stereo partly drawn) [Example 267, (S)-{3-(dimethylhydrazinylidene)-1-[4-(trifluoromethoxy)phenyl]-cyclobutyl}(pyridin-2-yl)methanol]",64,2410,10
"OC(c1ccccn1)C1(c2nc3ccccc3o2)CCC1 (stereo not drawn) [Example 271, [1-(1,3-benzoxazol-2-yl)cyclobutyl](pyridin-2-yl)methanol]",62,2190,8.6
"OC(c1ccccn1)C1(C2CCC(F)(F)CC2)CCC1 (stereo not drawn) [Example 274, [1-(4,4-difluorocyclohexyl)cyclobutyl](pyridin-2-yl)methanol]",55,3110,10
"Cn1c(C2(C(O)c3ccccn3)CCC2)nc2ccccc21 (stereo not drawn) [Example 275, [1-(1-methyl-1H-benzimidazol-2-yl)cyclobutyl](pyridin-2-yl)methanol]",67,19000,5.7
"OC1CC(c2ccc(F)c(Cl)c2)([C@H](O)c2ccccn2)C1 (stereo partly drawn) [Example 276, 3-(3-chloro-4-fluorophenyl)-3-[(S)-hydroxy(pyridin-2-yl)methyl]-cyclobutanol]",72,200,73
"O=C1CC(c2cc(C(F)(F)F)ccn2)([C@H](O)c2ccccn2)C1 [Example 277, 3-[(S)-hydroxy(pyridin-2-yl)methyl]-3-[4-(trifluoromethyl)pyridin-2-yl]-cyclobutanone]",>85,1970,>85
